According to patent publication US8247211B2, “Glycopeptide antibiotics” (American Cyanamid Company, priority 2001, dated 2012):
Converted amounts (≈) assume the structure as drawn. One block for each molecule: values may come before it.

How the values were obtained:
Test in all cases: In vitro antibacterial evaluation: minimum inhibitory concentration (MIC), broth dilution method
Type in all cases: cell-based
[1] = system: Enterococcus sp.
Protocol: (§1) The minimum inhibitory concentration (MIC), the lowest concentration of the antibiotic which inhibits growth of the test organism, is determined by the broth dilution method using Muller-Hinton II […] (Baltimore Biological Laboratories) following the recommendations of the National Committee for Clinical Laboratory Standards [Methods for dilution antimicrobial susceptibility tests for bacteria that grow aerobically, approved standard M7-A2, National Committee for Clinical Laboratory Standards, Villanova, Pa].
(§2) An inoculum level of 5×10^5 CFU/mL, and a range of antibiotic concentrations (64-0.06 μg/mL) is used. […] The test organisms include a spectrum of Gram-positive bacteria comprised of Staphylococcus sp., Streptococcus sp. and Enterococcus sp. These organisms include recent clinical isolates that are resistant to methicillin, penicillin and/or vancomycin.

[2] = system: Staphylococcus sp.; conditions: for MIC Staphylococcus aureus-SMITH (GC 4543): strain GC 4543; for MIC Staphylococcus haemolyticus (GC 4546): strain GC 4546; for MIC Coagulase Negative Staphylococcus (GC 4547): strain GC 4547; for MIC Coagulase Negative Staphylococcus (GC 4548): strain GC 4548; for MIC Coagulase Negative Staphylococcus (GC 4549): strain GC 4549; for MIC Coagulase Negative Staphylococcus (GC 4551): strain GC 4551; for MIC Coagulase Negative Staphylococcus (ID-3941): strain ID-3941
Protocol: as §1, §2

[3] = system: Streptococcus sp.
Protocol: as §1, §2

[4] = system: Escherichia coli; conditions: Escherichia coli (GC 4560); 18 hours at 35° C.
Protocol: as §1, §2

[5] = broth dilution, 18 hours at 35° C.
[6] = Enterococcus avium (GC 4558), 18 hours at 35° C.
[7] = broth dilution, inoculum 5×10^5 CFU/mL, 18 hours at 35° C.

MIC Enterococcus faecalis (ATCC 29212) ([1]; strain ATCC 29212): 8 mg/L (≈ 5.37 µM)
MIC Enterococcus faecalis (GC 2242) ([1]; strain GC 2242): 4 mg/L (≈ 2.69 µM)
MIC Enterococcus faecium (GC 2243) ([1]; strain GC 2243): 8 mg/L (≈ 5.37 µM)
MIC Enterococcus faecalis (GC 4552) ([1]; strain GC 4552): 8 mg/L (≈ 5.37 µM)
MIC Enterococcus faecalis (GC 4553) ([1]; strain GC 4553): 8 mg/L (≈ 5.37 µM)
MIC Enterococcus faecalis (GC 4554) ([1]; strain GC 4554): 8 mg/L (≈ 5.37 µM)
MIC Enterococcus faecium (GC 4556) ([1]; strain GC 4556): 8 mg/L (≈ 5.37 µM)
MIC Enterococcus faecium (GC 4557) ([1]; strain GC 4557): 1 mg/L (≈ 0.671 µM)
MIC Enterococcus avium (GC 4558) ([1]; strain GC 4558): 4 mg/L (≈ 2.69 µM)
MIC Staphylococcus aureus (ATCC 29213) [2, 5]: 1 mg/L (≈ 0.671 µM)
MIC Staphylococcus aureus (GC 1131) [2, 5]: 2 mg/L (≈ 1.34 µM)
MIC Staphylococcus aureus (GC 4541) [2, 5]: 1 mg/L (≈ 0.671 µM)
MIC Staphylococcus aureus (GC 4542) [2, 5]: 2 mg/L (≈ 1.34 µM)
MIC Staphylococcus aureus (GC 4544) [2, 5]: 2 mg/L (≈ 1.34 µM)
MIC Staphylococcus aureus (GC 4545) [2, 5]: 1 mg/L (≈ 0.671 µM)
MIC Staphylococcus aureus-SMITH (GC 4543) ([2]; 18 hours at 35° C.): 2 mg/L (≈ 1.34 µM)
MIC Staphylococcus aureus-SMITH (GC 4543) [2, 5]: 2 mg/L (≈ 1.34 µM)
MIC Coagulase Negative Staphylococcus (GC 4547) [2]: 1 mg/L (≈ 0.671 µM)
MIC Coagulase Negative Staphylococcus (GC 4547) [2, 5]: 1 mg/L (≈ 0.671 µM)
MIC Coagulase Negative Staphylococcus (GC 4548) [2]: 0.5 mg/L (≈ 0.336 µM)
MIC Coagulase Negative Staphylococcus (GC 4548) [2, 5]: 0.5 mg/L (≈ 0.336 µM)
MIC Coagulase Negative Staphylococcus (GC 4549) [2]: 0.5 mg/L (≈ 0.336 µM)
MIC Coagulase Negative Staphylococcus (GC 4549) [2, 5]: 0.5 mg/L (≈ 0.336 µM)
MIC Coagulase Negative Staphylococcus (GC 4551) [2]: 2 mg/L (≈ 1.34 µM)
MIC Coagulase Negative Staphylococcus (GC 4551) [2, 5]: 2 mg/L (≈ 1.34 µM)
MIC Coagulase Negative Staphylococcus (ID-3941) [2]: 0.5 mg/L (≈ 0.336 µM)
MIC Coagulase Negative Staphylococcus (ID-3941) [2, 5]: 0.5 mg/L (≈ 0.336 µM)
MIC Streptococcus agalactiae (GC 4564) ([3]; strain GC 4564): 0.25 mg/L (≈ 0.168 µM)
MIC Streptococcus pneumoniae (GC 4565) ([3]; strain GC 4565): <0.12 mg/L
MIC Streptococcus pyogenes (ID-3187) ([3]; strain ID-3187): 0.25 mg/L (≈ 0.168 µM)
Compound: CC(c1ccccc1)C1NC(=O)CNC(=O)C(CO)NC(=O)C(C(O)C2CNC(=N)N2C2OC(CO)C(O)C(O)C2O)NC(=O)C(C(O)C2CNC(=N)N2)NC(=O)C(Cc2ccc(OC3OC(COC(=O)C(c4ccccc4)c4ccccc4)C(OC4OC(CO)C(O)C(O)C4O)C(O)C3O)cc2)NC1=O (stereo not drawn) [Example 96b, Cyclo[glycyl-β-methylphenylalanyl-O-[6-O-(diphenylacetyl)-4-O-hexopyranosylhexopyranosyl]tyrosyl-3-(2-iminoimidazolidin-4-yl)seryl-3-(3-hexopyranosyl-2-iminoimidazolidin-4-yl)serylseryl]]
MIC Staphylococcus haemolyticus (GC 4546) [2]: 1 mg/L (≈ 0.671 µM)
MIC Staphylococcus haemolyticus (GC 4546) [2, 5]: 1 mg/L (≈ 0.671 µM)

MIC Enterococcus avium (GC 4558) [1, 6]: 16 mg/L (≈ 8.58 µM)
MIC Enterococcus faecalis (ATCC 29212) ([1]; Enterococcus faecalis (ATCC 29212), 18 hours at 35° C.): 64 mg/L (≈ 34.3 µM)
MIC Enterococcus faecalis (GC 2242) ([1]; Enterococcus faecalis (GC 2242), 18 hours at 35° C.): 64 mg/L (≈ 34.3 µM)
MIC Enterococcus faecalis (GC 2691) ([1]; Enterococcus faecalis (GC 2691), 18 hours at 35° C.): 16 mg/L (≈ 8.58 µM)
MIC Enterococcus faecalis (GC 4552) ([1]; Enterococcus faecalis (GC 4552), 18 hours at 35° C.): 64 mg/L (≈ 34.3 µM)
MIC Enterococcus faecalis (GC 4553) ([1]; Enterococcus faecalis (GC 4553), 18 hours at 35° C.): 32 mg/L (≈ 17.2 µM)
MIC Enterococcus faecalis (GC 4554) ([1]; Enterococcus faecalis (GC 4554), 18 hours at 35° C.): 64 mg/L (≈ 34.3 µM)
MIC Enterococcus faecalis (GC 6189) ([1]; Enterococcus faecalis (GC 6189), 18 hours at 35° C.): 16 mg/L (≈ 8.58 µM)
MIC Enterococcus faecium (GC 2243) ([1]; Enterococcus faecium (GC 2243), 18 hours at 35° C.): 16 mg/L (≈ 8.58 µM)
MIC Enterococcus faecium (GC 4557) ([1]; Enterococcus faecium (GC 4557), 18 hours at 35° C.): 16 mg/L (≈ 8.58 µM)
MIC Enterococcus avium (GC 4558) [1, 7]: 16 mg/L (≈ 8.58 µM)
MIC Enterococcus faecalis (ATCC 29212) [1, 7]: 64 mg/L (≈ 34.3 µM)
MIC Enterococcus faecalis (GC 2242) [1, 7]: 64 mg/L (≈ 34.3 µM)
MIC Enterococcus faecalis (GC 2691) [1, 7]: 16 mg/L (≈ 8.58 µM)
MIC Enterococcus faecalis (GC 4552) [1, 7]: 64 mg/L (≈ 34.3 µM)
MIC Enterococcus faecalis (GC 4553) [1, 7]: 32 mg/L (≈ 17.2 µM)
MIC Enterococcus faecalis (GC 4554) [1, 7]: 64 mg/L (≈ 34.3 µM)
MIC Enterococcus faecalis (GC 6189) [1, 7]: 16 mg/L (≈ 8.58 µM)
MIC Enterococcus faecium (GC 2243) [1, 7]: 16 mg/L (≈ 8.58 µM)
MIC Enterococcus faecium (GC 4557) [1, 7]: 16 mg/L (≈ 8.58 µM)
MIC Staphylococcus aureus (ATCC 29213) ([2]; strain ATCC 29213): 64 mg/L (≈ 34.3 µM)
MIC Staphylococcus aureus (GC 1131) ([2]; strain GC 1131): 64 mg/L (≈ 34.3 µM)
MIC Staphylococcus aureus (GC 3051) ([2]; strain GC 3051): 64 mg/L (≈ 34.3 µM)
MIC Staphylococcus aureus (GC 3053) ([2]; strain GC 3053): 32 mg/L (≈ 17.2 µM)
MIC Staphylococcus aureus (GC 4541) ([2]; strain GC 4541): 64 mg/L (≈ 34.3 µM)
MIC Staphylococcus aureus (GC 4542) ([2]; strain GC 4542): 64 mg/L (≈ 34.3 µM)
MIC Staphylococcus aureus-SMITH (GC 4543) [2]: 64 mg/L (≈ 34.3 µM)
MIC Staphylococcus aureus (GC 4544) ([2]; strain GC 4544): 64 mg/L (≈ 34.3 µM)
MIC Staphylococcus aureus (GC 4545) ([2]; strain GC 4545): 64 mg/L (≈ 34.3 µM)
MIC Coagulase Negative Staphylococcus (GC 4548) [2]: 16 mg/L (≈ 8.58 µM)
MIC Coagulase Negative Staphylococcus (GC 4549) [2]: 64 mg/L (≈ 34.3 µM)
MIC Coagulase Negative Staphylococcus (GC 4551) [2]: 32 mg/L (≈ 17.2 µM)
MIC Coagulase Negative Staphylococcus (GC 6257) ([2]; strain GC 6257): 32 mg/L (≈ 17.2 µM)
MIC Streptococcus agalactiae (GC 4564) ([3]; Streptococcus agalactiae (GC 4564), 18 hours at 35° C.): <0.12 mg/L
MIC Streptococcus pneumoniae (ATCC 6301) ([3]; Streptococcus pneumoniae (ATCC 6301), 18 hours at 35° C.): <0.12 mg/L
MIC Streptococcus pneumoniae (GC 1894) ([3]; Streptococcus pneumoniae (GC 1894), 18 hours at 35° C.): <0.12 mg/L
MIC Streptococcus pneumoniae (GC 4565) ([3]; Streptococcus pneumoniae (GC 4565), 18 hours at 35° C.): <0.12 mg/L
MIC Streptococcus pyogenes (GC 4563) ([3]; Streptococcus pyogenes (GC 4563), 18 hours at 35° C.): 0.5 mg/L (≈ 0.268 µM)
MIC Streptococcus agalactiae (GC 4564) [3, 7]: <0.12 mg/L
MIC Streptococcus pneumoniae (ATCC 6301) [3, 7]: <0.12 mg/L
MIC Streptococcus pneumoniae (GC 1894) [3, 7]: <0.12 mg/L
MIC Streptococcus pneumoniae (GC 4565) [3, 7]: <0.12 mg/L
MIC Streptococcus pyogenes (GC 4563) [3, 7]: 0.5 mg/L (≈ 0.268 µM)
Compound: CC(c1ccccc1)C1NC(=O)CNC(=O)C(CO)NC(=O)C(C(O)C2CNC(=N)N2C2OC(CO)C(O)C(O)C2O)NC(=O)C(C(O)C2CNC(=N)N2)NC(=O)C(Cc2ccc(OC3OC(CO)C(OC4OC5COC(c6ccc(C(=O)c7cc(I)c(I)c(I)c7)cc6)OC5C(O)C4O)C(O)C3O)cc2)NC1=O (stereo not drawn) [Example 187]

MIC Enterococcus avium (GC 4558) [1, 6]: 64 mg/L (≈ 44 µM)
MIC Enterococcus avium (GC 4558) [1, 7]: 64 mg/L (≈ 44 µM)
MIC Escherichia coli (GC 4560) [4]: 32 mg/L (≈ 22 µM)
Compound: CC(c1ccccc1)C1NC(=O)CNC(=O)C(CO)NC(=O)C(C(O)C2CNC(=N)N2C2OC(CO)C(O)C3OC(C)(C)OC32)NC(=O)C(C(O)C2CNC(=N)N2)NC(=O)C(Cc2ccc(OC3OC(CO)C(OC4OC5COC(C)(C)OC5C5OC(C)(C)OC45)C4OC(C)(C)OC34)cc2)NC1=O (stereo not drawn) [Example 229b, Cyclo[glycyl-β-methylphenylalanyl-O-[2,3-O-isopropylidene-4-O-(2,3:4,6-di-O-isopropylidene-hexopyranosyl)hexopyranosyl]tyrosyl-3-(2-iminoimidazolidin-4-yl)seryl-3-[2-imino-(2,3-O-isopropylidenehexopyranosyl)imidazolidin-4-yl]serylseryl]]
